Patent US10238713B2, “Cyclic tetrapeptides and therapeutic applications thereof” (LODZ UNIVERSITY OF TECHNOLOGY, priority 2010, dated 2019)
Non-standard residues stand in square brackets, D forms with d. Residues, ends and D or L forms follow the SMILES beside them. *: point of attachment. Bip = N[C@@H](Cc1ccc(-c2ccccc2)cc1)C(=O)O; β3hW = N[C@H](CC(=O)O)Cc1c[nH]c2ccccc12; Phe(4-F) = N[C@@H](Cc1ccc(F)cc1)C(=O)O; Phe(4-I) = N[C@@H](Cc1ccc(I)cc1)C(=O)O; hPhe = N[C@@H](CCc1ccccc1)C(=O)O; β3hF = N[C@H](CC(=O)O)Cc1ccccc1; tBu = CC(C)(C)*

Key:
human PBMC = test: Toxicity test: PBMC survival in 24 h culture (MTT); settings: ANOVA, FIGS. 8A-8F (4B8M repeated per figure)
Description: (§2) PBMC were isolated by centrifugation on Ficoll-uropoline gradient (density 1.077 g/ml) (Lymphoprep; PAA Laboratories), at 800×g for 20 min at 4° C. The interphase cells, consisting of lymphocytes (20%) and monocytes (80%) were then washed three times with Hanks' medium and re-suspended in the culture medium at density of 2×10^6 cells/ml.
Appropriate dilutions of DMSO in RPMI 1640 medium were used as controls. Cell survival was determined by the MTT colorimetric method (Hansen et al., J. Immunol. Methods, 1989, pp. 203-210). The data are presented as a mean OD value from quadriplicate wells ±standard error (SE). The cultures “Control (−)” contained only cells in the culture medium.
The assay was performed per Hansen et al., J. Immunol. […] Briefly, 25 μl of MTT (5 mg/ml) stock solution was added per well at the end of cell incubation and the plates were incubated for 3 h in a cell culture incubator. Then, 100 μl of the extraction buffer (20% SDS with 50% DMF, pH 4.7) was added. After additional overnight incubation, the optical density was measured at 550 nm (Dynatech 5000).

[1] = system: mice, carrageenan air pouch; test: Carrageenan air-pouch test (exudate cell number); assay type: in vivo, mouse; settings: peptides 100 μg i.p. one hour before carrageenan, 24 h; FIGS. 18A-18B
Description: (§1) In this and the air-pouch test, 1.5 mg peptide was dissolved in 300 μl of DMSO, then in 0.9% NaCl to achieve the desired dose (250 μg/0.2 ml or 100 μg/0.2 ml). Carrageenan (Sigma) was dissolved in 0.9% aqueous NaCl (overnight). 50 μl of 2% carrageenan solution was injected intradermally into hind foot pads. The peptides were given in a single 250 μg dose (0.2 ml) per mouse intraperitoneally (i.p.), 30 min before carrageenan administration. Dexamethasone (DEX) (Dexaven, Polfa, Poland), a reference drug, was given i.p. in dose 25 μg per mouse. Control mice were administered i.p. appropriately diluted solvent (DMSO in aqueous NaCl) instead of peptides. The foot pads of “background” (BG) mice were injected with 50 μl of 0.9% aqueous NaCl. Foot pad edema was measured with a spring caliper, 2 h, 3 h and 4 h after administration of carrageenan. The results are presented in FIGS. 17A, 17B and 17C as mean values of the antigen-specific increase of the foot pad thickness measured in 5 mice in each experimental group and expressed in mm ±SE (only results from measurements 4 h following administration of carrageenan are presented in figures). Statistics: FIG. 17A: Control vs: DEX P=0.0001; 4B8M P=0.0001; P25 NS (P=1.0000); P28 NS (P=1.0000); P31 NS (P=0.0528); P35 P=0.0008 (ANOVA of Kruskal-Wallis); FIG. 17B: Statistics: Control vs: P22 NS (P=1.0000); P26 NS (P=1.0000); P27 P=0.0050; P30 P=0.0004; P33-b NS (P=1.0000); SP00-b P=0.0001; P00S-b NS (P=1.0000) (ANOVA of Kruskal-Wallis); FIG. 17C: Statistics: Control vs: P21 P=0.0147; P23-2 P=0.0083; P24 P=0.0001; P29 NS (P=0.9999); P32 P=0.0001; P33 NS (P=0.6806); P34 NS (P=0.1920) (ANOVA).
Air pouches were formed by subdermal injection into the dorsal region (in a halothane anesthesia) of 5 cm^3 of air (needle 23G x 11/4, 5 ml syringe). On day 3 the air pouches were given an additional 2 ml of air and an inflammatory process was elicited by an intra-pouch injection of 1% of carrageenan in 0.5 ml of 0.9% aqueous NaCl. The peptides were given i.p. at a dose of 100 μg one hour before carrageenan injection into the air pouch. The mice from the “background” (BG) group were given 0.9% aqueous NaCl i.p. and 0.9% aqueous NaCl into the air pouches. Control mice were given appropriately diluted DMSO i.p. and carrageenan into the air pouches. 24 h after carrageenan injection, the mice were sacrificed by cervical dislocation, the air pouches were supplemented with 1 ml of 0.9% aqueous NaCl and the exudates from the air pouches were aspirated using a syringe. The exudates were diluted with 0.9% aqueous NaCl and the cells were counted in a Bürker hemocytometer. Data are presented in FIGS. 18A and 18B as the mean values from 10 mice/group (cell number×10^6 per mouse) ±SE. Then the cells were centrifuged and 0.1 ml of the supernatant was saved for TNF-α determination (see Determination of TNF-α activity, above). The cell pellets were used to perform smears on microscopic glasses, which were stained with Giemsa and May-Grünwald reagents for evaluation of mast cell degranulation. Cell analysis was performed by a histologist using a light microscope and 1000× magnification. The content of intact and degranulated mast cells is given in percentage (mean values from 10 mice/group) ±SE. Statistics: FIG. 18A: BG vs Control P=0.0000; Control vs: DEX P=0.0034; 4B8M P=0.0005; P22 NS (P=0.7275); P26 P=0.0032; P27 NS (P=0.0659); P35 NS (P=1.0000) (ANOVA of Kruskal-Wallis); FIG. 18B: Control vs: P21 NS (P=0.322); P23-2 P=0.0020; P24 P=0.0001; P25 P=0.0418; P28 NS (P=0.3502); P29 NS (P=0.0582); P30 P=0.0006; P31 P=0.0078; P32 P=0.0340; P33 NS (P=0.9993); P34 NS (p=0.0566) (ANOVA).

[2] = Solubility in the aqueous culture medium; assay type: physicochemical
Description: RPMI-1640 medium (Cibi/Life Technologies, UK), fetal calf serum (FCS, Gibco), DMSO, phytohemagglutinin A (PHA), lipopolysaccharide (LPS) from E. coli strain O111:B4 (Sigma), […]-2,5-diphenyltetrazolium bromide (MTT), SDS and DMF (Sigma). The culture medium consisted of RPMI-1640, 10% addition of FCS, L-glutamine, sodium pyruvate, 2-mercaptoetanol and antibiotics (streptomycin and penicillin). Cyclic tetrapeptides were initially dissolved in DMSO (5 mg/ml), the dissolved in the culture medium to the desired concentration.
The effects of the peptides on PMBC survival in 24h culture are presented in FIGS. 8A, 8B, 8C, 8D, 8E and 8F. Peptide 4B8M (compound I-A) was included as a reference compound. Appropriate dilutions of DMSO were added to control cultures. […] In the figures, P01=compound I-D, P02=compound I-E, P03=compound I-F, P04=compound I-G, P05=compound I-H, P06=compound I-J, P07=compound I-K, P08=compound I-L, P10a=compound I-M, P10b=compound I-N, P11=compound I-O, P21=compound I-R, P-21b=compound I-Q, P22=compound I-S, P23-2=compound I-U, P24=compound I-V, P25=compound I-X, P25-i=compound I-W, P26=compound I-Y, P27=compound I-Z, P28=compound I-AA, P29=compound I-AB, P30=compound I-AC, P31=compound I-AD, P32=compound I-AE, P33=compound I-AG, P33-b=compound I-AF, P34=compound I-AH, P35=compound I-AI, P00S-b=compound I-AJ, SP00-b=compound I-AL.

[3] = system: PHA-induced proliferation of human peripheral blood mononuclear cells (PBMC); test: Proliferative response of PBMC to PHA (MTT); assay type: cell-based; settings: four-day incubation, FIGS. 9A-9F
Description: as §2
The isolated PBMC were distributed into 96-well flat-bottom plates in 100 μl aliquots (2×10^5 cells/well). PHA was used at concentration of 5 μg/ml. The compounds were tested at concentrations of 1, 10 and 100 μg/ml. DMSO at appropriate dilutions served as control. After a four-day incubation in a cell culture incubator, the proliferative response of cells was determined by the colorimetric MTT method (Hansen et al., J. Immunol. Methods, 1989, pp. 203-210). The data are presented as a mean OD value from quadriplicate wells ±standard error (SE). The cultures “Control (−)” contained no mitogen (PHA). The cultures “Control (PHA)” contained PHA but not cyclic tetrapeptides.
Briefly, 25 μl of MTT (5 mg/ml) stock solution was added per well at the end of cell incubation and the plates were incubated for 3 h in a cell culture incubator. Then, 100 μl of the extraction buffer (20% SDS with 50% DMF, pH 4.7) was added. After additional overnight incubation, the optical density was measured at 550 nm (Dynatech 5000).

[4] = system: mice, carrageenan-induced foot pad edema; test: Carrageenan-induced foot-pad edema test; assay type: in vivo, mouse; settings: 4 h after carrageenan; peptides 250 μg i.p., DEX 25 μg i.p., 30 min before; FIGS. 17A-17C
Description: as §1

splenocytes = test: Toxicity test on splenocytes (24 h, MTT); assay type: cell-based, mouse; settings: 100 μg/ml (printed 100 μg/m for I-C)
Description: Cell survival was determined by MTT colorimetric method. The results were presented as mean optical density (OD) at 550 nm from 4 wells. The viability of cells in respective compound concentrations was compared to appropriate DMSO control groups (100% survival), corresponding to respective compound concentrations.

[5] = system: concanavalin A-induced mouse splenocyte proliferation; test: Proliferative response of splenocytes to concanavalin A (MTT); assay type: cell-based
Description: Spleens were pressed against a plastic screen into 0.83% NH4Cl solution to lyse erythrocytes (5 min incubation at room temperature). The cells were then washed twice with Hanks' medium, passed through glass wool column to remove debris, and re-suspended in the culture medium, referred to below as the “culture medium”, consisting of RPMI-1640, supplemented with 10% of fetal calf serum, L-glutamine, sodium pyruvate, 2-mercaptoethanol, streptomycin and penicillin (100 μg/ml). The cells were then distributed into 96-well flat-bottom tissue culture plates (Nunc) at a density of 2×10^5 cells/100 μl/well. Con A (2.5 μg/ml) was added to induce cell proliferation. The compounds were added to the cultures at doses of 1-100 μg/ml. After a three-day incubation, cell proliferation was determined using the colorimetric MTT method (Hansen M B, J Immunol Methods, 1989, 119, 203-210). The results were presented as the mean optical density (OD) at 550 nm ±SE from quadriplicate determinations (wells).

Compound	PBMC survival, P vs DMSO at appropriate dilution (human PBMC; 10 μg/ml)	PBMC survival, P vs DMSO at appropriate dilution (human PBMC; 100 μg/ml)	air pouch exudate cell number, P vs Control [1]	solubility in the aqueous culture medium [2]	PHA-induced PBMC proliferation, P vs DMSO at appropriate dilution ([3]; 100 μg/ml)	foot pad edema (increase of foot pad thickness), P vs Control [4]	PHA-induced PBMC proliferation, P vs DMSO at appropriate dilution ([3]; 10 μg/ml)	toxicity to splenocytes (splenocytes)	effect on concanavalin A-induced splenocyte proliferation ([5]; 100 μg/ml)	effect on concanavalin A-induced splenocyte proliferation ([5]; lower concentrations (below 100 μg/ml))
O=C1C[C@H](Cc2ccccc2)NC(=O)[C@@H]2CCCN2C(=O)[C@@H]2CCCN2C(=O)[C@H](Cc2ccc(F)cc2)N1 [I-X] (cyclo(PP[β3hF][Phe(4-F)]))	0.8597	0.0001	0.0418	incomplete solubility	1.0000	1.0000	–	–	–	–
O=C1C[C@H](Cc2ccccc2)NC(=O)[C@@H]2CCCN2C(=O)[C@@H]2CCCN2C(=O)[C@H](Cc2ccc(I)cc2)N1 [I-W] (cyclo(PP[β3hF][Phe(4-I)]))	0.9992	0.9602	–	incomplete solubility	0.0001	–	0.0001	–	–	–
CC(C)(C)OC[C@@H]1NC(=O)[C@@H]2CCCN2C(=O)[C@H](Cc2ccccc2)NC(=O)C[C@H](Cc2ccccc2)NC1=O [I-AJ] (cyclo(FPS(tBu)[β3hF]))	0.9962	0.9250	–	incomplete solubility	0.7035	1.0000	1.0000	–	–	–
O=C1C[C@H](Cc2ccccc2)NC(=O)[C@@H]2CCCN2C(=O)[C@@H]2CCCN2C(=O)[C@H](CCc2ccccc2)N1 [I-AI] (cyclo(PP[β3hF][hPhe]))	0.0222	1.0000	1.0000	incomplete solubility	1.0000	0.0008	–	–	–	–
O=C1C[C@H](Cc2ccccc2)NC(=O)[C@@H]2CCCN2C(=O)[C@@H]2CCCN2C(=O)[C@H](Cc2ccc(-c3ccccc3)cc2)N1 [I-AH] (cyclo([Bip]PP[β3hF]))	0.0005	0.0001	0.0566	incomplete solubility	0.001861	0.1920	–	–	–	–
O=C1C[C@H](Cc2c[nH]c3ccccc23)NC(=O)[C@@H]2CCCN2C(=O)[C@@H]2CCCN2C(=O)[C@H](Cc2ccccc2)N1 [I-AE] (cyclo(FPP[β3hW]))	0.9954	0.9984	0.0340	incomplete solubility	0.0023	0.0001	0.0127	–	–	–
O=C1N[C@@H](Cc2ccccc2)CC(=O)N2CCC[C@H]2C(=O)N2CCC[C@H]2C(=O)N[C@H]1Cc1ccccc1 [I-B] (cyclo(F[β3hF]PP))	–	–	–	–	–	–	–	30%	weak antiproliferative effect	no such effect was observed
